For assay [1], the system named is T. cruzi Tulahuen strain C2C4. Nature of the assay: T. cruzi Tulahuen strain C2C4 β-galactosidase assay; SI versus L6 cells. The class given is cell-based, Trypanosoma cruzi. On the procedure:
(§1) L6 rat skeletal myoblasts, [29] were purchased from the American Type Culture Collection (ATCC, Rockville, MD, USA; ATCC number CRL 1458). This cell line was used for cytotoxicity testing to calculate an SI against T.b. rhodesiense and screened alongside the T.b. rhodesiense, P. falciparum, T. cruzi and L. donovani assays. L6 were also the host cells for the T. cruzi assay. Assays were performed in 96-well microtiter plates, each well containing 100 µl of RPMI 1640 medium supplemented with 1% L-glutamine (200 mM), 10% FCS, and 4000 L6 cells. Serial drug dilutions of eleven 3-fold dilution steps covering a range from 100 to 0.002 µg/ml were prepared. After 70 hours of incubation the plates were inspected under an inverted microscope to assure growth of the controls and sterile conditions. Ten µl of resazurin solution (resazurin, 12.5 mg in 100 ml double-distilled water) was then added to each well and the plates incubated for another 2 hours. Then the plates were read with a Spectramax Gemini XS microplate fluorometer (Molecular Devices Cooperation, Sunnyvale, CA, USA) using an excitation wavelength of 536 nm and an emission wavelength of 588 nm. Data was analysed using the microplate reader software Softmax Pro (Molecular Devices, USA). Podophyllotoxin was used as a positive control in the assay.
Rat skeletal myoblasts (L6 cells) were seeded in 96-well microtitre plates at 2000 cells/well in 100 µl RPMI 1640 medium with 10% FCS and 2 mM l-glutamine. After 24 hours the medium was removed and replaced by 100 µl per well containing 5000 trypomastigote forms of T. cruzi Tulahuen strain C2C4 containing the β-galactosidase (Lac Z) gene. After 48 hours the medium was removed from the wells and replaced by 100 µl fresh medium with or without a serial drug dilution of eleven 3-fold dilution steps covering a range from 100 to 0.002 µg/ml. After 96 hours of incubation the plates were inspected under an inverted microscope to assure growth of the controls and sterility. Then 50 µl of the substrate, containing chlorophenol red-β-D-galactopyranoside (CPRG) and Nonidet, was added to all wells. A colour reaction developed within 2–6 hours that could be read photometrically at 540 nm. Data were transferred into the graphic programme Softmax Pro (Molecular Devices, USA), which calculated IC50 values. The drug benznidazole was used as a positive standard in this assay.

Assay [2] has as its system P. falciparum K1 strain. Put plainly: P. falciparum 3H-hypoxanthine incorporation assay; SI versus L6 cells. The class given is cell-based, Plasmodium falciparum. To be noted: Plasmodium falciparum, K1, L6, read-out: Reference Compound Activity P.F (IC50). Here is the method:
as §1
Compounds dissolved in DMSO at 10 mg/ml were added to parasite cultures incubated in RPMI 1640 medium without hypoxanthine, supplemented with HEPES (5.94 g/l), NaHCO3 (2.1 g/l), neomycin (100 U/ml), Albumax (5 g/l) and washed human A^+ red blood cells at 2.5% haematocrit (0.3% parasitaemia). Serial drug dilutions of eleven 3-fold dilution steps covering a range from 100 to 0.002 µg/ml were prepared. The 96-well plates were incubated in a humidified atmosphere at 37°C; 4% CO2, 3% O2, 93% N2. After 48 hours, 50 µl of ^3H-hypoxanthine ( = 0.5 µCi) was added to each well of the plate. The plates were incubated for a further 24 hours under the same conditions. The plates were then harvested with a Betaplate cell harvester (Wallac, Zurich, Switzerland), and the red blood cells transferred onto a glass fibre filter then washed with distilled water. The dried filters were inserted into a plastic foil with 10 ml of scintillation fluid, and counted in a Betaplate liquid scintillation counter (Wallac, Zurich, Switzerland). IC50 values were calculated from sigmoidal inhibition curves using Microsoft Excel.

Assay [3] has as its system T.b. rhodesiense STIB900. Put plainly: T. b. rhodesiense STIB900 assay (resazurin); SI versus L6 cells. It is filed as cell-based, Trypanosoma brucei rhodesiense. Here is the method: as §1
T.b. rhodesiense STIB900 stock was isolated in 1982 from a human patient in Tanzania and after several mouse passages cloned and adapted to axenic culture conditions. Fifty microliters of Minimum Essential Medium (MEM) supplemented with 25 mM HEPES, 1 g/l additional glucose, 1% MEM non-essential amino acids (100×), 0.2 mM 2-mercaptoethanol, 1 mM Na-pyruvate and 15% heat inactivated horse serum was added to each well of a 96-well microtiter plate. Serial drug dilutions of eleven 3-fold dilution steps covering a range from 100 to 0.002 µg/ml were prepared. Four thousand bloodstream form cells of T.b. rhodesiense STIB 900 in 50 µl were added to each well and the plate incubated at 37°C under a 5% CO2 atmosphere for 70 hours. Ten microlitres of resazurin solution (resazurin, 12.5 mg in 100 ml double-distilled water) was then added to each well and incubation continued for a further 2–4 hours. Plates were then read with a Spectramax Gemini XS microplate fluorometer (Molecular Devices, USA) using an excitation wavelength of 536 nm and an emission wavelength of 588 nm. Data was analysed using the microplate reader software Softmax Pro (Molecular Devices, USA). The drug melarsoprol was a positive control against T.b. rhodesiense.
(In general: Alamar Blue is a resazurin reagent that responds to reducing activity.)

The test system of assay [4] is L. donovani strain MHOM/ET/67/L82 axenic amastigotes. Nature of the assay: L. donovani axenic amastigote fluorescence assay; SI versus L6 cells. It is filed as cell-based, Leishmania donovani. On the procedure:
as §1
Amastigotes of L. donovani strain MHOM/ET/67/L82 were grown in axenic culture at 37°C in SM medium at pH 5.4 supplemented with 10% heat-inactivated FCS under an atmosphere of 5% CO2 in air. One hundred µl of culture medium containing 10^5 amastigotes from axenic culture with or without a serial drug dilution were seeded in 96-well microtitre plates. Serial drug dilutions of eleven 3-fold dilution steps covering a range from 100 to 0.002 µg/ml were prepared. After 70 hours of incubation the plates were inspected under an inverted microscope to assure growth of the controls and sterile conditions. Ten µl of resazurin solution (12.5 mg resazurin dissolved in 100 ml distilled water) were then added to each well and the plates incubated for another 2 hours. The plates were then read with a Spectramax Gemini XS microplate fluorometer (Molecular Devices, USA) using an excitation wavelength of 536 nm and an emission wavelength of 588 nm. Data was analysed using the software Softmax Pro (Molecular Devices, USA). Decrease of fluorescence ( = inhibition) was expressed as percentage of the fluorescence of control cultures and plotted against the drug concentrations. From the sigmoidal inhibition curves the IC50 values were calculated. Miltefosine served as a known drug control in this assay.

As to `O=C(Cn1ccnc1[N+](=O)[O-])NCc1ccccc1` [Benznidazole, benznidazole, reference compound], the IC50 in assay [1] (Trypanosoma cruzi, TULAHUEN, L6, positive standard, read-out: Reference Compound Activity T.C (IC50)) amounted to 1680 ± 1930 nM. Further, in assay [1] (relative to L6 cells), the “Selectivity Index T.C” value was greater than 206. Turning to `CCN(CC)CCCC(C)Nc1ccnc2cc(Cl)ccc12` (stereo not shown) [Chloroquine, reference compound], in assay [2], the IC50 was found to be 164 ± 24.7 nM. Take `Nc1nc(N)nc(Nc2ccc([As]3SCC(CO)S3)cc2)n1` (stereo not shown) [Melarsoprol, melarsoprol, reference compound]: in assay [3] (Trypanosoma brucei, L6, read-out: Reference Compound Activity T.R (IC50)), the IC50 turned out to be 6.28 ± 1.78 nM. Also, the “Selectivity Index T.R” value in assay [3] (relative to L6 cells) came to 2915.

`CCCCCCCCCCCCCCCCOP(=O)([O-])OCC[N+](C)(C)C` [Miltefosine, reference compound]: the half-maximal inhibitory concentration (IC50) in assay [4] (Leishmania donovani, L6, known drug control, read-out: Reference Compound Activity L.D (IC50)) came to 365 ± 93.7 nM. Moreover, in assay [4] (relative to L6 cells), the “Selectivity Index L.D” value was 392.

A word on the IC50: it is the point on the concentration scale where inhibition reaches its midpoint.

The values above are taken from article PMC3510080, “Identification of Compounds with Anti-Proliferative Activity against Trypanosoma brucei brucei Strain 427 by a Whole Cell Viability Based HTS Campaign” (PLoS Neglected Tropical Diseases, 2012).
